Test results published in the CheMixHub ionic liquid set.
± gives the uncertainty stated by the source.

Test: xn = mol fraction of the nth substance listed

Q: With `CCCCCCCCCCCC[N+](CC)(CC)CC.O=S(=O)([N-]S(=O)(=O)C(F)(F)F)C(F)(F)F` + O as the compound, how does the viscosity (293.25 K, 101 kPa, x2 = 0.1247) read?
A: The viscosity was 157.4 ± 3.9 mPa·s.

Q: What about the viscosity (298.05 K, 101 kPa, x2 = 0.1247) of the same compound?
A: Its viscosity is 130.7 ± 3.1 mPa·s.

Q: For `CCCCCCCCCCCC[N+]1(C)CCCCC1.O=C([O-])c1ccccc1O` + O, which electrical conductivity (298.15 K, 100 kPa, x1 = 3.55e-06) is on record?
A: The electrical conductivity was 0.00167 ± 0.00087 S/m.

Q: What about the electrical conductivity (298.15 K, 100 kPa, x1 = 2.712e-05) of the same compound?
A: The electrical conductivity was 0.0079 ± 0.0027 S/m.

Q: And the electrical conductivity (328.15 K, 100 kPa, x1 = 8.89e-06)?
A: The electrical conductivity was 0.0063 ± 0.0046 S/m.

Q: With `CCCCCC[n+]1ccccc1.O=[N+]([O-])[O-]` + O as the compound, how does the viscosity (298.15 K, 101 kPa, x1 = 0.0002072) read?
A: Its viscosity is 0.9698 ± 0.0081 mPa·s.

Q: And the viscosity (298.15 K, 101 kPa, x1 = 0.0003855)?
A: Its viscosity is 1.002 ± 0.0083 mPa·s.

Q: And the viscosity (298.15 K, 101 kPa, x1 = 0.0005691)?
A: Its viscosity is 1.012 ± 0.0083 mPa·s.

Q: What about the viscosity (298.15 K, 101 kPa, x1 = 0.0007311) of the same compound?
A: The viscosity was 1.033 ± 0.0085 mPa·s.

Q: And the viscosity (298.15 K, 101 kPa, x1 = 0.0009416)?
A: Its viscosity is 1.045 ± 0.0085 mPa·s.

Q: And the viscosity (298.15 K, 101 kPa, x1 = 0.001112)?
A: Its viscosity is 1.058 ± 0.0086 mPa·s.

Q: What about the viscosity (298.15 K, 101 kPa, x1 = 0.001262) of the same compound?
A: The viscosity was 1.069 ± 0.0087 mPa·s.

Q: What about the viscosity (298.15 K, 101 kPa, x1 = 0.00145) of the same compound?
A: Its viscosity is 1.101 ± 0.0089 mPa·s.

Q: What about the viscosity (298.15 K, 101 kPa, x1 = 0.001634) of the same compound?
A: The viscosity was 1.107 ± 0.0089 mPa·s.

Q: And the viscosity (298.15 K, 101 kPa, x1 = 0.001826)?
A: The viscosity was 1.122 ± 0.0091 mPa·s.

Q: What about the viscosity (298.15 K, 101 kPa, x1 = 0.003609) of the same compound?
A: Its viscosity is 1.219 ± 0.0097 mPa·s.

Q: And the viscosity (298.15 K, 101 kPa, x1 = 0.005402)?
A: The viscosity was 1.312 ± 0.01 mPa·s.

Q: What about the viscosity (298.15 K, 101 kPa, x1 = 0.007153) of the same compound?
A: The viscosity was 1.39 ± 0.011 mPa·s.

Q: What about the viscosity (298.15 K, 101 kPa, x1 = 0.008806) of the same compound?
A: Its viscosity is 1.453 ± 0.012 mPa·s.

Q: And the viscosity (298.15 K, 101 kPa, x1 = 0.01076)?
A: Its viscosity is 1.515 ± 0.012 mPa·s.

Q: What about the viscosity (298.15 K, 101 kPa, x1 = 0.01248) of the same compound?
A: Its viscosity is 1.581 ± 0.013 mPa·s.

Q: What about the viscosity (298.15 K, 101 kPa, x1 = 0.01427) of the same compound?
A: The viscosity was 1.646 ± 0.013 mPa·s.

Q: What about the viscosity (298.15 K, 101 kPa, x1 = 0.01599) of the same compound?
A: The viscosity was 1.702 ± 0.014 mPa·s.

Q: And the viscosity (298.15 K, 101 kPa, x1 = 0.01772)?
A: The viscosity was 1.758 ± 0.015 mPa·s.

Q: Which viscosity (313.15 K, 100 kPa, x2 = 0.1575) does the source give for `CCCCCn1cc[n+](CCCCC)c1.O=S(=O)([N-]S(=O)(=O)C(F)(F)F)C(F)(F)F` + O here?
A: Its viscosity is 35.17 ± 0.31 mPa·s.

Q: And the viscosity (338.15 K, 100 kPa, x2 = 0.1575)?
A: The viscosity was 15.44 ± 0.14 mPa·s.

Q: What about the viscosity (358.15 K, 100 kPa, x2 = 0.1575) of the same compound?
A: The viscosity was 9.31 ± 0.08 mPa·s.

Q: For `CCCC[N+]1(C)CCCCC1.N#C[N-]C#N` + O, which viscosity (298.15 K, 100 kPa, x2 = 0.2122) is on record?
A: Its viscosity is 73 ± 12 mPa·s.

Q: What about the viscosity (328.15 K, 100 kPa, x2 = 0.7349) of the same compound?
A: Its viscosity is 6.6 ± 1.1 mPa·s.

Q: What about the viscosity (333.15 K, 100 kPa, x2 = 0.6419) of the same compound?
A: Its viscosity is 8 ± 1.3 mPa·s.

Q: With `CCCC[n+]1ccc(C)cc1.F[B-](F)(F)F` + O as the compound, how does the electrical conductivity (298.15 K, 101 kPa, x1 = 0.0002198) read?
A: Its electrical conductivity is 0.131 ± 0.02 S/m.

Q: What about the electrical conductivity (298.15 K, 101 kPa, x1 = 0.0004197) of the same compound?
A: Its electrical conductivity is 0.206 ± 0.02 S/m.

Q: What about the electrical conductivity (298.15 K, 101 kPa, x1 = 0.0007725) of the same compound?
A: The electrical conductivity was 0.357 ± 0.02 S/m.

Q: What about the electrical conductivity (298.15 K, 101 kPa, x1 = 0.001123) of the same compound?
A: Its electrical conductivity is 0.486 ± 0.02 S/m.

Q: And the electrical conductivity (298.15 K, 101 kPa, x1 = 0.001267)?
A: Its electrical conductivity is 0.554 ± 0.02 S/m.

Q: What about the electrical conductivity (298.15 K, 101 kPa, x1 = 0.001481) of the same compound?
A: Its electrical conductivity is 0.638 ± 0.02 S/m.

Q: What about the electrical conductivity (298.15 K, 101 kPa, x1 = 0.00182) of the same compound?
A: The electrical conductivity was 0.757 ± 0.02 S/m.

Q: And the electrical conductivity (298.15 K, 101 kPa, x1 = 0.00217)?
A: Its electrical conductivity is 0.871 ± 0.02 S/m.

Q: What about the electrical conductivity (298.15 K, 101 kPa, x1 = 0.002506) of the same compound?
A: The electrical conductivity was 0.979 ± 0.02 S/m.

Q: What about the electrical conductivity (298.15 K, 101 kPa, x1 = 0.002721) of the same compound?
A: Its electrical conductivity is 1.01 ± 0.02 S/m.

Q: And the electrical conductivity (298.15 K, 101 kPa, x1 = 0.002887)?
A: Its electrical conductivity is 1.07 ± 0.02 S/m.

Q: What about the electrical conductivity (298.15 K, 101 kPa, x1 = 0.003188) of the same compound?
A: Its electrical conductivity is 1.19 ± 0.02 S/m.

Q: What about the electrical conductivity (298.15 K, 101 kPa, x1 = 0.003487) of the same compound?
A: The electrical conductivity was 1.27 ± 0.02 S/m.

Q: What about the electrical conductivity (298.15 K, 101 kPa, x1 = 0.003843) of the same compound?
A: The electrical conductivity was 1.36 ± 0.02 S/m.

Q: What about the electrical conductivity (298.15 K, 101 kPa, x1 = 0.004144) of the same compound?
A: Its electrical conductivity is 1.44 ± 0.02 S/m.

Q: What about the electrical conductivity (298.15 K, 101 kPa, x1 = 0.004481) of the same compound?
A: Its electrical conductivity is 1.52 ± 0.02 S/m.

Q: With `CCCC[n+]1ccccc1.N#C[N-]C#N` + O as the compound, how does the viscosity (298.15 K, 100 kPa, x1 = 0.9563) read?
A: The viscosity was 30.06 ± 0.64 mPa·s.

Q: What about the electrical conductivity (298.15 K, 100 kPa, x1 = 0.9642) of the same compound?
A: Its electrical conductivity is 0.931 ± 0.022 S/m.

Q: What about the electrical conductivity (303.15 K, 100 kPa, x1 = 0.9189) of the same compound?
A: The electrical conductivity was 1.17 ± 0.028 S/m.

Q: What about the electrical conductivity (303.15 K, 100 kPa, x1 = 0.9338) of the same compound?
A: Its electrical conductivity is 1.14 ± 0.027 S/m.

Q: And the electrical conductivity (303.15 K, 100 kPa, x1 = 0.9488)?
A: The electrical conductivity was 1.12 ± 0.027 S/m.

Q: And the viscosity (303.15 K, 100 kPa, x1 = 0.9563)?
A: The viscosity was 24.67 ± 0.53 mPa·s.

Q: What about the viscosity (313.15 K, 100 kPa, x1 = 0.926) of the same compound?
A: Its viscosity is 16.69 ± 0.36 mPa·s.

Q: And the viscosity (313.15 K, 100 kPa, x1 = 0.9563)?
A: Its viscosity is 17.57 ± 0.37 mPa·s.

Q: What about the electrical conductivity (313.15 K, 100 kPa, x1 = 0.9642) of the same compound?
A: The electrical conductivity was 1.54 ± 0.037 S/m.

Q: And the viscosity (318.15 K, 100 kPa, x1 = 0.926)?
A: The viscosity was 14.38 ± 0.31 mPa·s.

Q: What about the electrical conductivity (318.15 K, 100 kPa, x1 = 0.9338) of the same compound?
A: The electrical conductivity was 1.89 ± 0.046 S/m.

Q: What about the viscosity (318.15 K, 100 kPa, x1 = 0.9722) of the same compound?
A: The viscosity was 15.54 ± 0.33 mPa·s.

Q: What about the viscosity (323.15 K, 100 kPa, x1 = 0.9563) of the same compound?
A: The viscosity was 12.69 ± 0.27 mPa·s.

Q: And the viscosity (323.15 K, 100 kPa, x2 = 0.01155)?
A: The viscosity was 13.56 ± 0.29 mPa·s.

Q: And the viscosity (328.15 K, 100 kPa, x1 = 0.926)?
A: The viscosity was 10.62 ± 0.23 mPa·s.

Q: And the viscosity (328.15 K, 100 kPa, x1 = 0.9412)?
A: Its viscosity is 10.83 ± 0.23 mPa·s.

Q: What about the electrical conductivity (333.15 K, 100 kPa, x1 = 0.9488) of the same compound?
A: Its electrical conductivity is 2.75 ± 0.061 S/m.

Q: And the viscosity (333.15 K, 100 kPa, x1 = 0.9563)?
A: The viscosity was 9.77 ± 0.21 mPa·s.

Q: What about the electrical conductivity (333.15 K, 100 kPa, x1 = 0.9642) of the same compound?
A: Its electrical conductivity is 2.7 ± 0.061 S/m.

Q: And the viscosity (338.15 K, 100 kPa, x1 = 0.9412)?
A: The viscosity was 8.47 ± 0.18 mPa·s.

Q: For `CCn1cc[n+](C)c1.N[C@@H](CO)C(=O)[O-]` + O, which electrical conductivity (303.15 K, 100 kPa, x1 = 0.9276) is on record?
A: The electrical conductivity was 0.0944 ± 0.0034 S/m.

Q: And the electrical conductivity (308.15 K, 100 kPa, x1 = 0.9133)?
A: The electrical conductivity was 0.132 ± 0.004 S/m.

Q: What about the electrical conductivity (313.15 K, 100 kPa, x1 = 0.9133) of the same compound?
A: Its electrical conductivity is 0.169 ± 0.005 S/m.

Q: And the electrical conductivity (313.15 K, 100 kPa, x1 = 0.9276)?
A: The electrical conductivity was 0.166 ± 0.005 S/m.

Q: What about the electrical conductivity (318.15 K, 100 kPa, x1 = 0.8699) of the same compound?
A: Its electrical conductivity is 0.223 ± 0.006 S/m.

Q: What about the electrical conductivity (318.15 K, 100 kPa, x1 = 0.884) of the same compound?
A: Its electrical conductivity is 0.221 ± 0.006 S/m.

Q: And the electrical conductivity (323.15 K, 100 kPa, x1 = 0.9133)?
A: Its electrical conductivity is 0.269 ± 0.007 S/m.

Q: What about the electrical conductivity (328.15 K, 100 kPa, x1 = 0.884) of the same compound?
A: Its electrical conductivity is 0.346 ± 0.009 S/m.

Q: And the electrical conductivity (333.15 K, 100 kPa, x1 = 0.8699)?
A: Its electrical conductivity is 0.436 ± 0.011 S/m.

Q: What about the electrical conductivity (333.15 K, 100 kPa, x1 = 0.884) of the same compound?
A: Its electrical conductivity is 0.432 ± 0.011 S/m.

Q: And the electrical conductivity (338.15 K, 100 kPa, x1 = 0.9276)?
A: The electrical conductivity was 0.511 ± 0.012 S/m.

Q: For `C[N+](C)(C)CCO.O=C([O-])CO` + O, which viscosity (293.15 K, 101 kPa, x2 = 0.366) is on record?
A: The viscosity was 660 ± 260 mPa·s.
